Series [1] deals with CHIKV replicon. In words: CHIKV replicon-based assay (GLuc activity in BHK-21-GLuc-nsP-CHIKV-99659 cells). The settings on record: for inhibition at 10 µM: read-out: GLuc Inhibition; for EC50: 48 h, read-out: EC50 (concentration required to inhibit 50% of the GLuc activity); for SI (CC50/EC50): replicon-based assay. (In general: A replicon is a self-replicating genome or part of one, used to study replication in cells.)

Series [2] in a line: MTT cytotoxicity / cell viability in CHIKV replicon cells. The settings on record: hamster, BHK-21-GLuc-nsP-CHIKV-99659 cells (CHIKV replicon cells).
The subject of series [3] is replication-transcription complex (RTC). The settings on record: cited from earlier work.
In series [4] the test system is CHIKV-nanoluc. In words: Viral infection assay with CHIKV-nanoluc in BHK-21 cells. The format is cell-based, Chikungunya virus. The settings on record: MOI 0.1, 16 h.p.i., read-out: EC50 (CHIKV-nanoluc replication).
Series [5] relates to BHK-21 cells. Briefly: Cell viability in the viral infection assay. The format is cell-based.
For series [6], the system named is BHK-21-GLuc-nsP-CHIKV-99659 cells. Briefly: MTT cytotoxicity / cell viability in CHIKV replicon cells. As to conditions: CHIKV replicon cells, 48 h, MTT assay; for CC50: read-out: CC50 (50% cytotoxicity).
The conditions of series [7]: cited from earlier work.
Series [8] can be described thus: Cell viability in the viral infection assay. The format is cell-based. The settings on record: hamster, BHK-21 cells infected with CHIKV-nanoluc.
The mark [9] stands for this setting: CHIKV replicon cells, GLuc signal from supernatant.

Read-outs that look alike come from different tables or passages of the source.

The term inhibition denotes the percentage by which the read-out fell short of the control. As a reminder, the viability is a per cent measure of how many cells are alive, often set against a control. A lower viability goes with a greater loss of cells. In the case of `Clc1ccc(C(Cn2ccnc2)OCc2ccsc2Cl)c(Cl)c1` (stereo not shown) [Tioconazole], the inhibition at 10 µM in series [1] (Chikungunya virus) came out at 54.8%. In series [2], the viability at 10 µM amounted to 68.4%.

Turning to `Clc1ccc(COC(Cn2ccnc2)c2ccc(Cl)cc2Cl)cc1` (stereo not shown) [Econazole], the inhibition at 10 µM in series [1] (Chikungunya virus) is 43.8%. Also, in series [2], the viability at 10 µM was 81.8%.

On to `CC(=O)N1CCN(c2ccc(OCC3COC(Cn4ccnc4)(c4ccc(Cl)cc4Cl)O3)cc2)CC1` (stereo not shown) [Ketoconazole], for which the inhibition at 10 µM in series [1] (Chikungunya virus) was found to be 0%. Also, in series [2], the viability at 10 µM is 100%.

On to `C[C@@H](c1nc(-c2ccc(C#N)cc2)cs1)[C@](O)(Cn1cncn1)c1cc(F)ccc1F` [Isavuconazole], for which, in series [1] (Chikungunya virus), the inhibition at 10 µM was found to be 28.6%. The molecule also had a viability at 10 µM in series [2] of 100%.

In the case of `OC(Cn1cncn1)(Cn1cncn1)c1ccc(F)cc1F` [Fluconazole], the inhibition at 10 µM in series [1] (Chikungunya virus) is 0%. Further, the viability at 10 µM in series [2] was found to be 94.3%.

By CC50 is commonly meant the concentration at which the toxic effect on the cells reaches its halfway point. For the molecule `Cc1ccc(C(=O)Nc2ccc(S(=O)(=O)O)c3cc(S(=O)(=O)O)cc(S(=O)(=O)O)c23)cc1NC(=O)c1cccc(NC(=O)Nc2cccc(C(=O)Nc3cc(C(=O)Nc4ccc(S(=O)(=O)O)c5cc(S(=O)(=O)O)cc(S(=O)(=O)O)c45)ccc3C)c2)c1` [suramin], the EC50 in series [1] (Chikungunya virus) is 3200 ± 300 nM; in series [3], 6.7 µM. Moreover, in series [2], the CC50 at 48 h was greater than 50 µM.

For `C[C@@H](c1ncncc1F)[C@](O)(Cn1cncn1)c1ccc(F)cc1F` [Voriconazole], the inhibition at 10 µM in series [1] (Chikungunya virus) is 13.9%. The molecule also came in with a viability at 10 µM in series [2] of 91.8%.

With `C[C@@H](c1nc(-c2ccc(C#N)cc2)cs1)[C@](O)(Cn1cncn1)c1ccc(F)cc1F` [Ravuconazole], the inhibition at 10 µM in series [1] (Chikungunya virus) turned out to be 25.4%. In series [2], this molecule showed a viability at 10 µM of 100%.

Take `Clc1ccc(COC(Cn2ccnc2)c2ccc(Cl)cc2Cl)c(Cl)c1` (stereo not shown) [Miconazole]: the inhibition at 10 µM in series [1] (Chikungunya virus) was found to be 27.8%. For the same molecule, the viability at 10 µM in series [2] is 100%.

With `C[C@H](C(N)=O)N1CCCC[C@@H]1c1ccc(OCc2cccc(F)c2)cc1` [MMV676270], the figures for the EC50 in series [1] (setting [9]) and in series [4] were 5200 ± 1000 nM and 18.4 ± 5 µM, respectively. For the same molecule, the “SI (CC50/EC50)” value in series [1] was determined as 10. Moreover, the figures for the CC50 in series [5] and in series [6] were 59.5 µM and 52 ± 20 µM, respectively. Besides, the “CC50 (50% cytotoxicity)” value in series [6] is “moderate toxicities”.

Take `CC[C@@H]([C@H](C)O)n1ncn(-c2ccc(N3CCN(c4ccc(OC[C@@H]5CO[C@@](Cn6cncn6)(c6ccc(F)cc6F)C5)cc4)CC3)cc2)c1=O` [Posaconazole]: the inhibition at 10 µM in series [1] (Chikungunya virus) stood at 11.8%. In addition, the viability at 10 µM in series [2] stood at 100%. Besides, the “no toxic effects up to concentration” value in series [7] was greater than 100 µM.

In the case of `Clc1ccccc1C(c1ccccc1)(c1ccccc1)n1ccnc1` [Clotrimazole], the inhibition at 10 µM in series [1] (Chikungunya virus) was 70.7%. Further, in series [2], the viability at 10 µM worked out at 70.2%.

As to `O=C(N[C@@H]1CCCc2c1[nH]c1ccc(Cl)cc21)c1ccccn1` [GSK-983], the EC50 in series [1] (setting [9]) amounted to 330 ± 200 nM; in series [4] it was 13.8 ± 3.3 µM. The “SI (CC50/EC50)” value in series [1] is 30. Also, the figures for the CC50 in series [5] and in series [6] were greater than 100 µM and 10 ± 0.07 µM, respectively. In series [6], the “CC50 (50% cytotoxicity)” value was “moderate toxicities”.

Take `CCC(C)n1ncn(-c2ccc(N3CCN(c4ccc(OCC5COC(Cn6cncn6)(c6ccc(Cl)cc6Cl)O5)cc4)CC3)cc2)c1=O` (stereo not shown) [Itraconazole, itraconazole]: the EC50 in series [1] (Chikungunya virus) came to 320 ± 200 nM; in series [4] (Chikungunya virus) it was 0.34 ± 0.02 µM. Moreover, in series [1], the “SI (CC50/EC50)” value was greater than 312. In series [8], this molecule returned a CC50 at 16 h greater than 100 µM. The same molecule showed a CC50 at 48 h in series [2] greater than 100 µM.

In the case of `CC[C@@]1(O)C(=O)OCc2c1cc1n(c2=O)Cc2cc3c([N+](=O)[O-])cccc3nc2-1` [Rubitecan, rubitecan], the results for the EC50 in series [1] (Chikungunya virus) and in series [4] (Chikungunya virus) were 140 ± 30 nM and 3.6 ± 0.8 µM, respectively. Further, the “SI (CC50/EC50)” value in series [1] was greater than 714. Further, in series [8], the CC50 at 16 h is greater than 100 µM. In series [2], this molecule displayed a CC50 at 48 h greater than 100 µM.
